Literature values as cited in US20210187081A1, “FORMULATIONS AND DOSES OF PEGYLATED URICASE” (Selecta Biosciences, Inc., priority 2019, published 2021).
Like-named read-outs stand apart in the source and are kept apart here.

Experiments:
[1] = tested on: Patients with Hyperuricemia and Gout; conditions: for Subjects who required treatment for at least one gout flare: first 8 weeks, with gout flare prophylaxis
[2] = tested on: patients with gout with an inadequate response to allopurinol; conditions: for Patients with gout flares requiring treatment in a month: colchicine prophylaxis

Compound	Flares per patient month (flare frequency) ([1]; 80 mg/day) [flares per patient month]	Subjects who required treatment for at least one gout flare ([1]; 80 mg/day)	Flares per patient month (flare frequency) ([1]; 80 mg/day, listed as febuxostat)	Flares per patient month (flare frequency) ([1]; 120 mg/day) [flares per patient month]	Subjects who required treatment for at least one gout flare ([1]; 120 mg/day)	Flares per patient month (flare frequency) ([1]; 120 mg/day, listed as febuxostat) [flares per patient month]	Patients with gout flares requiring treatment in a month ([2]; 200 mg daily)	Flares per patient month (flare frequency) ([2]; 200 mg/day) [flares per patient month]	Time of efficacy (area under curve of mean sUA levels over time) ([2]; 200 mg/day)	Patients with gout flares requiring treatment in a month ([2]; 400 mg daily)	Flares per patient month (flare frequency) ([2]; 400 mg/day) [flares per patient month]	Time of efficacy (area under curve of mean sUA levels over time) ([2]; 400 mg/day)	Patients with gout flares requiring treatment in a month ([2]; 600 mg daily)	Flares per patient month (flare frequency) ([2]; 600 mg/day) [flares per patient month]	Time of efficacy (area under curve of mean sUA levels over time) ([2]; 600 mg/day)
Cc1nc(-c2ccc(OCC(C)C)c(C#N)c2)sc1C(=O)O [Febuxostat, febuxostat]	0.22	55 out of 255	at least 0.22 flares per patient month	0.36	90 out of 250	≥ 0.36									
O=C(O)CSc1nnc(Br)n1-c1ccc(C2CC2)c2ccccc12 [Lesinurad, lesinurad]							10 out of 46	0.22	158.5	13 out of 42	0.31	165.8	15 out of 48	0.31	167.5
